# Experimental data published in patent US20090022720A1, “Conjugate of an antibody against CD4 and antifusogenic peptides” (priority 2007, published 2009).
# Assays:
# NL-BAL (R5) = assay: Single-cycle antiviral activity assay (luciferase, JC53-BL cells), NL-BAL; assay type: cell-based, HIV; conditions: Table 3, by weight, pseudotyped virus, 3 day incubation
# Experimental: For the production of pseudotyped NL-Bal viruses, plasmid pNL4-3Δenv (HIV pNL4-3 genomic construct with a deletion within the env gene) and pcDNA3.1/NL-BAL env (pcDNA3.1 plasmid containing NL-Bal env gene (obtained from NIBSC Centralized Facility for AIDS Reagents)) were co-transfected into the HEK 293FT cell line (Invitrogen Corp.), cultured in Dulbecco's modified minimum medium (DMEM) containing 10% fetal calf serum (FCS), 100 U/mL Penicillin, 100 μg/mL Streptomycin, 2 mM L-glutamine and 0.5 mg/mL geniticin (all media from Invitrogen/Gibco). The supernatants containing pseudotyped viruses were harvested two days following transfection, and cellular debris was removed by filtration through a […] pore size PES (polyethersulfone) filter (Nalgene) and stored at −80° C. in aliquots. For normalization in assay performance, virus stock aliquots were used to infect JC53-BL (US NIH Aids Reagent Program) cells yielding approximately 1.5×10^5 RLU (relative light units) per well. […] The assay plates were read on a Luminometer (Luminoskan, Thermo Electron Corporation) after 10 minutes of incubation at room temperature. Percent inhibition of luciferase activity was calculated for each dose point after subtracting the background, and IC50 and IC90-values were determined by using XLfit curve fitting software for Excel (version 3.0.5 Build12; Microsoft).
# NL-BAL = assay: Antiviral activity assay in peripheral blood mononuclear cells (PBMC), p24 ELISA, NL-BAL; assay type: cell-based, HIV-1; conditions: Table 5, by weight; human PBMC, 6 days
# Experimental: Human PBMC are isolated from buffy-coats (obtained from the Stanford Blood Center) by a Ficoll-Paque (Amersham, Piscataway, N.J., USA) density gradient centrifugation according to manufacturer's protocol. Briefly, blood is transferred from the buffy coats in 50 ml conical tubes and diluted with sterile Dulbecco's phosphate buffered saline (Invitrogen/Gibco) to a final volume of 50 ml. Twenty-five ml of the diluted blood are transferred to two 50 ml conical tubes, carefully underlayerd with 12.5 ml of Ficoll-Paque Plus (Amersham Biosciences) and centrifuged at room temperature for 20 min. at 450×g without braking. The white cell layer is carefully transferred to a new 50 ml conical tube and washed twice with PBS. To remove remaining red blood cells, cells are incubated for 5 min. at room temperature with ACK lysis buffer (Biosource) and washed one more time with PBS. PBMC are counted and incubated at a concentration of 2-4×10^6 cells/ml in RPMI1640 containing 10% FCS (Invitrogen/Gibco), 1% penicillin/streptomycin, 2 mM L-glutamine, 1 mM sodium-pyruvate, and 2 μg/ml Phyto-hemagglutinin (Invitrogen) for 24 h at 37° C. […] Virus production is measured at the end of infection by using p24 ELISA (HIV-1 p24 ELISA #NEK050B, Perkin Elmer/NEN) using the sigmoid dose-response model with one binding site in Microsoft Excel Fit (version 3.0.5 Build 12; equation 205; Microsoft).
sequence,measurement,setting,value
NMTWMEWDREINQYTSLIHSLIEESQNQQEKNEQELL [afp-1],Antiviral activity NL-BAL (R5) IC50,NL-BAL (R5),19.6/— ng/mL
same,Antiviral activity NL-BAL IC90,NL-BAL,—/57.6 ng/mL
